Reference: patent US20090099216A1, “NOVEL ADENINE COMPOUND” (priority 2005, published 2009)

molecular target: T1, Human TLR7 (Homo sapiens, UniProt Q9NYK1); experiment: Human TLR7 reporter assay (NF-kB-SEAP) in HEK293 cells; type: cell-based; settings: hTLR7/seap-293 HEK293 cells, 20 hours incubation, absorbance 405 nm, read-out: human TLR7 binding activity (EC50)
T1 construct: expressed in transfected cells; host or cells: HEK293 (hTLR7/seap-293), stably carrying the TLR7 plasmid and the NF-kB-SEAP reporter plasmid
T1 sequence (Q9NYK1 27-1049): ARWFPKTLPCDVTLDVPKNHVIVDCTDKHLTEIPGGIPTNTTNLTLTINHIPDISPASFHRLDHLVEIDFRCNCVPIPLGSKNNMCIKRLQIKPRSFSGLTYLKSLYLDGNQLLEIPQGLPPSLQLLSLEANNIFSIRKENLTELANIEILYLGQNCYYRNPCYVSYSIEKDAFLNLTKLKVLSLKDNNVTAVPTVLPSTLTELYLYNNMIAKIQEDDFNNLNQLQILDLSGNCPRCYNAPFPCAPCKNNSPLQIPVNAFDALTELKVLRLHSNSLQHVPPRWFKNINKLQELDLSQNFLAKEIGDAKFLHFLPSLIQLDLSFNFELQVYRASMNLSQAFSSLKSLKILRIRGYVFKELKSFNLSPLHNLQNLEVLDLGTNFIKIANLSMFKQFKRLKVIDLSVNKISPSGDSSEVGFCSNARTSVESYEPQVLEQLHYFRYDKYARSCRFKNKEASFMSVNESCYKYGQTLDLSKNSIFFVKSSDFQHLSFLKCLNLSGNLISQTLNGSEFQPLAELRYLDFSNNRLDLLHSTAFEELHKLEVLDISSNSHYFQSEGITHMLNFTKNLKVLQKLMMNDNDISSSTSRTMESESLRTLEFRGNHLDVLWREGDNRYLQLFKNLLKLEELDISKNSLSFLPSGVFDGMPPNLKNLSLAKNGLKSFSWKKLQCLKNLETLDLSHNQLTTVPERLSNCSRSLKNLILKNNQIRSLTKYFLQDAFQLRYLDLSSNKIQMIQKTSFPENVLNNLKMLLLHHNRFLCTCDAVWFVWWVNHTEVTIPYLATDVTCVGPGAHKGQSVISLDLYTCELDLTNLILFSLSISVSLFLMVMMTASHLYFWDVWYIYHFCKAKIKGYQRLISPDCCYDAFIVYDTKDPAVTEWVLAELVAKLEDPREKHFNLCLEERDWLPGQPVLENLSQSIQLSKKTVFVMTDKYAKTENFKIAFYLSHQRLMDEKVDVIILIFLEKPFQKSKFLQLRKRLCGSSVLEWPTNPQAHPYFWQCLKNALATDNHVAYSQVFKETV
Procedure: Human TLR7 Reporter Assay
Human TLR7 or rat TLR7 plasmid and reporter plasmid (NF-kB-SEAP) stably-induced HEK293 cells were suspended in DMEM media (10% FBS, 1% NEAA, 10 ug/mL blastocidin S HCl, 100 ug/mL Zeocin), and the suspension was seeded in 90 μl/well on 96 well plate (hTLR^7/seap-293: 20000 cells/well, rTLR7/seap-293: 25000 cells/well).
To the cells seeded on 96 well plate was added in 10 μl/well a test compound wherein DMSO stock solution (2 μl) was hundredfold diluted with medium (200 μl) (final concentration; 1 nM-10 μM, common ratio 3). The mixture was stirred tapping in the side of the plate, and then incubated for 20 hours in CO2 incubator. To the cells stimulated by a test compound was added a substrate for reporter assay (substrate for SEAP, pNPP) by 50 μl/well. 10 minutes after the addition of substrate, a quenching solution (4N NaOH) was added by 50 μl/well, and the enzymatic reaction was quenched. Top seal A was attached on the plate, and absorbance was measured by microplate reader (405 nm).

Going from `CCCCOc1nc(N)c2[nH]c(=O)n(CCNCC(=O)OC)c2n1` [Example 1, Methyl N-[2-(6-amino-2-butoxy-7,8-dihydro-8-oxo-9H-purin-9-yl)-ethyl]glycinate] to `CCCCOc1nc(N)c2[nH]c(=O)n(CCN[C@@H](CC(=O)OC)C(=O)OC)c2n1` [Example 6, Dimethyl N-[2-(6-amino-2-butoxy-8-oxo-7,8-dihydro-9H-purin-9-yl)ethyl]-L-aspartate], the EC50 rises from 0.29 µM to 0.881 µM (3-fold). The first is the more potent here.

`CCCCOc1nc(N)c2[nH]c(=O)n(CCN[C@@H](CCCCN)C(=O)OC)c2n1` [Example 7, Methyl N^2-[2-(6-amino-2-butoxy-8-oxo-7,8-dihydro-9H-purin-9-yl)ethyl]-L-lysinate] gave an EC50 of 1.71 µM.
